Assay results as given in PubChem BioAssay AID328 (DTP/NCI, 2004).
Several values for one entry are separate records, joined by “and”; a condition that tells them apart may be missing. Equal entries are not always repeated. Toxic doses and inconclusive results are not listed. The calls were made as follows: active = survival T/C of 150% or more; inactive = T/C below 125% in these data.

System: BDF1 mice, P388 leukemia ip, median survival T/C
Assay: NCI In Vivo Anticancer Drug Screen. Data for tumor model P388 Leukemia (intraperitoneal) in B6D2F1 (BDF1) mice
Details: endpoint: median survival time, higher = longer survival
Procedure, shortened: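 Survival ratio, drug arm over vehicle arm, in mice with a transplanted tumour.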

[1] = dose: 50.0 mg/kg/injection, schedule: Q04DX003 (ip), vehicle: Klucel (hydroxypropylcellulose) (HPC)
[2] = dose: 100.0 mg/kg/injection, schedule: Q04DX003 (ip), vehicle: Klucel (hydroxypropylcellulose) (HPC)
[3] = dose: 400.0 mg/kg/injection, schedule: Q04DX003 (ip), vehicle: Klucel (hydroxypropylcellulose) (HPC)
[4] = dose: 25.0 mg/kg/injection, schedule: Q01DX009 (ip), vehicle: saline
[5] = dose: 50.0 mg/kg/injection, schedule: Q01DX009 (ip), vehicle: saline
[6] = dose: 100.0 mg/kg/injection, schedule: Q01DX009 (ip), vehicle: saline
[7] = dose: 200.0 mg/kg/injection, schedule: Q01DX009 (ip), vehicle: saline
[8] = dose: 100.0 mg/kg/injection, schedule: Q01DX009 (ip), vehicle: saline with Tween-80
[9] = dose: 200.0 mg/kg/injection, schedule: Q01DX009 (ip), vehicle: saline with Tween-80
[10] = dose: 200.0 mg/kg/injection, schedule: Q04DX003 (ip), vehicle: saline with Tween-80
[11] = dose: 400.0 mg/kg/injection, schedule: Q04DX003 (ip), vehicle: saline with Tween-80
[12] = dose: 100.0 mg/kg/injection, schedule: Q01DX001 (ip), vehicle: Klucel (hydroxypropylcellulose) (HPC)
[13] = dose: 200.0 mg/kg/injection, schedule: Q01DX001 (ip), vehicle: Klucel (hydroxypropylcellulose) (HPC)
[14] = dose: 400.0 mg/kg/injection, schedule: Q01DX001 (ip), vehicle: Klucel (hydroxypropylcellulose) (HPC)

Measured: T/C

Nc1ncnc2c1cnn2Cc1ccc(Cl)cc1
inactive: dose: 12.5 mg/kg/injection, schedule: Q04DX003 (ip), vehicle: Klucel (hydroxypropylcellulose) (HPC) 118 % of control | dose: 16.5 mg/kg/injection, schedule: Q04DX003 (ip), vehicle: Klucel (hydroxypropylcellulose) (HPC) 91 % of control and 100 % of control | dose: 25.0 mg/kg/injection, schedule: Q01DX009 (ip), vehicle: Klucel (hydroxypropylcellulose) (HPC) 90 % of control | dose: 25.0 mg/kg/injection, schedule: Q04DX003 (ip), vehicle: Klucel (hydroxypropylcellulose) (HPC) 91 % of control and 100 % of control | dose: 37.5 mg/kg/injection, schedule: Q04DX003 (ip), vehicle: Klucel (hydroxypropylcellulose) (HPC) 95 % of control | dose: 50.0 mg/kg/injection, schedule: Q01DX009 (ip), vehicle: Klucel (hydroxypropylcellulose) (HPC) 95 % of control | [1] 104 % of control

COc1ccc(C=O)c(O)c1
inactive: dose: 100.0 mg/kg/injection, schedule: Q01DX009 (ip), vehicle: Klucel (hydroxypropylcellulose) (HPC) 90 % of control | [2] 92 % of control | dose: 200.0 mg/kg/injection, schedule: Q01DX009 (ip), vehicle: Klucel (hydroxypropylcellulose) (HPC) 104 % of control | dose: 400.0 mg/kg/injection, schedule: Q01DX009 (ip), vehicle: Klucel (hydroxypropylcellulose) (HPC) 90 % of control | [3] 96 % of control

COc1ccc(CN(C)CCN(C)CCN(C)Cc2ccc(OC)cc2)cc1
inactive: dose: 3.12 mg/kg/injection, schedule: Q01DX009 (ip), vehicle: water 92 % of control | dose: 6.25 mg/kg/injection, schedule: Q01DX009 (ip), vehicle: saline 102 % of control | dose: 6.25 mg/kg/injection, schedule: Q01DX009 (ip), vehicle: water 108 % of control | dose: 12.5 mg/kg/injection, schedule: Q01DX009 (ip), vehicle: saline 103 % of control | dose: 12.5 mg/kg/injection, schedule: Q01DX009 (ip), vehicle: water 99 % of control | [4] 93 % of control | dose: 25.0 mg/kg/injection, schedule: Q01DX009 (ip), vehicle: water 100 % of control | dose: 25.0 mg/kg/injection, schedule: Q04DX003 (ip), vehicle: water 90 % of control | [5] 86 % of control | dose: 50.0 mg/kg/injection, schedule: Q01DX009 (ip), vehicle: water 106 % of control | dose: 50.0 mg/kg/injection, schedule: Q04DX003 (ip), vehicle: water 99 % of control | dose: 100.0 mg/kg/injection, schedule: Q04DX003 (ip), vehicle: water 96 % of control

CC(C)C1=CC2=CC(=O)C3C(C)(C)CCCC3(C)C2=C(O)C1=O (configuration not stated)
inactive: dose: 2.0 mg/kg/injection, schedule: Q01DX010 (ip), vehicle: carboxymethylcellulose (CMC) 105 % of control | dose: 5.0 mg/kg/injection, schedule: Q01DX010 (ip), vehicle: carboxymethylcellulose (CMC) 105 % of control | dose: 5.0 mg/kg/injection, schedule: Q01DX010 (ip), vehicle: other 115 % of control | dose: 10.0 mg/kg/injection, schedule: Q01DX010 (ip), vehicle: carboxymethylcellulose (CMC) 100 % of control | dose: 10.0 mg/kg/injection, schedule: Q01DX010 (ip), vehicle: other 115 % of control | dose: 20.0 mg/kg/injection, schedule: Q01DX010 (ip), vehicle: carboxymethylcellulose (CMC) 120 % of control

C=CCOP1(=O)OCC2OC(n3cnc4c(N)ncnc43)C(O)C2O1 (configuration not stated)
inactive: [6] 88 % of control | [7] 100 % of control | dose: 400.0 mg/kg/injection, schedule: Q01DX009 (ip), vehicle: saline 88 % of control

Cc1nn2c(=O)[nH]cnc2c1Cl
inactive: [8] 93 % of control | [9] 100 % of control | [10] 95 % of control | [11] 109 % of control

Brc1cnc(OCc2ccccc2)nc1OCc1ccccc1
inactive: [8] 103 % of control | dose: 100.0 mg/kg/injection, schedule: Q04DX003 (ip), vehicle: saline with Tween-80 104 % of control | [9] 103 % of control | [10] 104 % of control | dose: 400.0 mg/kg/injection, schedule: Q01DX009 (ip), vehicle: saline with Tween-80 107 % of control | [11] 108 % of control

CN(C)C(=S)Sc1ccc([N+](=O)[O-])cc1[N+](=O)[O-]
inactive: [12] 100 % of control | [2] 100 % of control | [13] 100 % of control | dose: 200.0 mg/kg/injection, schedule: Q04DX003 (ip), vehicle: Klucel (hydroxypropylcellulose) (HPC) 104 % of control | [14] 100 % of control | [3] 108 % of control

C=CCNCCN1CCN(CCCN2c3ccccc3Sc3ccc(C(F)(F)F)cc32)CC1
inactive: dose: 6.25 mg/kg/injection, schedule: Q04DX003 (ip), vehicle: saline 108 % of control and 110 % of control | dose: 12.5 mg/kg/injection, schedule: Q04DX003 (ip), vehicle: saline 87 % of control and 110 % of control | dose: 25.0 mg/kg/injection, schedule: Q04DX003 (ip), vehicle: saline 100 % of control and 118 % of control | dose: 50.0 mg/kg/injection, schedule: Q04DX003 (ip), vehicle: saline 116 % of control

O=C(c1ccccc1)C(c1ccccc1)C(O)(C(F)(F)F)C(F)(F)F (configuration not stated)
inactive: dose: 100.0 mg/kg/injection, schedule: Q01DX001 (ip), vehicle: saline with Tween-80 100 % of control | dose: 200.0 mg/kg/injection, schedule: Q01DX001 (ip), vehicle: saline with Tween-80 95 % of control

Nc1ccc(N)c2c1C(=O)c1cccc([N+](=O)[O-])c1C2=O
inactive: dose: 25.0 mg/kg/injection, schedule: Q01DX010 (ip), vehicle: carboxymethylcellulose (CMC) 95 % of control | dose: 50.0 mg/kg/injection, schedule: Q01DX010 (ip), vehicle: carboxymethylcellulose (CMC) 105 % of control | dose: 100.0 mg/kg/injection, schedule: Q01DX010 (ip), vehicle: carboxymethylcellulose (CMC) 115 % of control | dose: 200.0 mg/kg/injection, schedule: Q01DX010 (ip), vehicle: carboxymethylcellulose (CMC) 105 % of control | dose: 400.0 mg/kg/injection, schedule: Q01DX010 (ip), vehicle: carboxymethylcellulose (CMC) 110 % of control

CCC1CCN2CCc3c([nH]c4ccccc34)C(C(=O)OC)(c3cc4c(cc3OC)N(C)C3C(O)(C(=O)OC)C(OC(C)=O)C5(CC)CCCN6CCC43C65)CC2C1 (configuration not stated)
inactive: dose: 0.06 mg/kg/injection, schedule: Q01DX009 (ip), vehicle: water 95 % of control | dose: 0.12 mg/kg/injection, schedule: Q01DX009 (ip), vehicle: water 100 % of control | dose: 0.25 mg/kg/injection, schedule: Q01DX009 (ip), vehicle: water 104 % of control | dose: 0.5 mg/kg/injection, schedule: Q01DX009 (ip), vehicle: water 95 % of control | dose: 1.0 mg/kg/injection, schedule: Q01DX009 (ip), vehicle: water 86 % of control and 104 % of control | dose: 2.0 mg/kg/injection, schedule: Q01DX009 (ip), vehicle: water 90 % of control and 95 % of control | dose: 4.0 mg/kg/injection, schedule: Q01DX009 (ip), vehicle: water 90 % of control | dose: 8.0 mg/kg/injection, schedule: Q01DX009 (ip), vehicle: water 95 % of control

CCOc1cc(C=Nc2cccc(C(F)(F)F)c2)ccc1O
inactive: dose: 100.0 mg/kg/injection, schedule: Q04DX003 (ip), vehicle: other 95 % of control | dose: 400.0 mg/kg/injection, schedule: Q04DX003 (ip), vehicle: other 95 % of control

O=S(=O)(Nc1ccc(C(F)(F)F)cc1)c1ccc(C(F)(F)F)cc1
inactive: [1] 90 % of control | [2] 90 % of control

CC(=O)Oc1c(Br)c(-c2cc([N+](=O)[O-])c(C)c([N+](=O)[O-])c2C)c(OC(C)=O)c(Br)c1-c1cc([N+](=O)[O-])c(C)c([N+](=O)[O-])c1C
inactive: dose: 50.0 mg/kg/injection, schedule: Q01DX001 (ip), vehicle: Klucel (hydroxypropylcellulose) (HPC) 112 % of control | [12] 115 % of control | [13] 115 % of control | [14] 106 % of control

NN1CCCC1
inactive: [4] 100 % of control | [5] 100 % of control | [6] 86 % of control and 90 % of control and 100 % of control | dose: 100.0 mg/kg/injection, schedule: Q04DX003 (ip), vehicle: saline 104 % of control | [7] 100 % of control | dose: 200.0 mg/kg/injection, schedule: Q04DX003 (ip), vehicle: saline 113 % of control
